Source: the NIST ThermoML archive (doi:10.1016/j.jct.2015.02.007)
± gives the expanded uncertainty stated by the source.

Tests used:
[1] = 100 kPa, Liquid; for mass density: Vibrating tube method
[2] = xn = mol fraction of the nth substance listed; conditions: 100 kPa, Liquid, x2 = 0; for mass density: Vibrating tube method

mass density ([1]; 278.15 K) | mass density ([1]; 283.15 K) | speed of sound ([1]; 318.15 K, Pulse-echo method) | mass density ([1]; 323.15 K) | mass density ([1]; 328.15 K) | mass density ([1]; 333.15 K) | mass density ([2]; 278.15 K) | mass density ([2]; 283.15 K) | speed of sound ([2]; 318.15 K, Pulse-echo method) | mass density ([2]; 323.15 K) | mass density ([2]; 328.15 K) | mass density ([2]; 333.15 K) | SMILES
999.965 ± 0.11 kg/m3 | 999.698 ± 0.11 kg/m3 | 1536.7 ± 0.99 m/s | 988.027 ± 0.11 kg/m3 | 985.682 ± 0.11 kg/m3 | 983.186 ± 0.11 kg/m3 |  |  |  |  |  |  | O [water]
 |  |  |  |  |  | 999.965 ± 0.11 kg/m3 | 999.698 ± 0.11 kg/m3 | 1536.7 ± 0.99 m/s | 988.027 ± 0.11 kg/m3 | 985.682 ± 0.11 kg/m3 | 983.186 ± 0.11 kg/m3 | O [water] + OCCOCCOCCOCCO
